Experimental data taken from article PMC11257039, “VCP activator reverses nuclear proteostasis defects and enhances TDP-43 aggregate clearance in multisystem proteinopathy models” (The Journal of Clinical Investigation, 2024).
Where “and” joins values, the source holds several entries; their conditions need not be identical. Equal entries are not always repeated. Residues, ends and D or L forms follow the SMILES beside them. *: point of attachment. Cbz = O=C(OCc1ccccc1)*

How the values were obtained:
Assay type in all cases: cell-based
[1] = system: WT HeLa cells expressing TDP-4FL; assay: Immunofluorescence of TDP-4FL inclusion morphology, WT HeLa; conditions: for Proportion of Morphology: Aggregate / Proportion of Morphology: Anisosome: WT
Procedure: (§1) HeLa Cells were plated onto glass coverslips and transfected with TDP-4FL using Fugene HD for 24 hours. Cells were fixed with 4% paraformaldehyde (Electron Microscopy Sciences), permeabilized with 0.1% Triton-X (Thermo Fisher Scientific), and blocked with 2% FBS DPBS. Primary antibodies were diluted in 2% FBS DPBS. Cells were stained with 300 nM DAPI, and coverslips were mounted onto glass slides using ProLong Glass Antifade Mountant (Thermo Fisher Scientific). Confocal images were obtained using a Leica TCS SPE laser scanning confocal microscope.
(A) High power magnification immunofluorescence confocal images of HeLa cells expressing TDP-4FL stained for myc-TDP (green) Scale bar, 5 µm. […]
(C) Representative confocal microscopy immunofluorescence confocal images of HeLa cells […]
(§2) yellow represent cells that were categorized as anisosome morphology. Nuclei outline in white represent cells that were categorized as aggregate morphology. Cells with approximately more than 50% anisosome inclusions were categorized as anisosome morphology whereas cells with approximately more than 50% aggregate-like inclusions were categorized as aggregate morphology. Binucleate cells were excluded from the total counts. Scale bar, 10 µm.
(§3) (1 picture or pasted object on this page, not shown here)

[2] = system: A232E HeLa cells expressing TDP-4FL; assay: Immunofluorescence of TDP-4FL inclusion morphology, A232E HeLa
Procedure: as §1, with “microscope. Primary antibodies used include mouse anti-Myc (9E10), rabbit anti-Myc (ab9106), mouse anti-VCP (NB120-11433), and mouse anti-ubiquitin (ST1200, Millipore) with Alexa Flour 488 or 568 (Invitrogen) as secondary antibodies. […]” for “microscope.”
(§4) morphologies with MG132 treatment.
(§5) (A) High power magnification immunofluorescence confocal images of HeLa cells expressing TDP-4FL stained for myc-TDP (green) Scale bar, 5 µm. (B) Immunofluorescence confocal images of HeLa cells treated with or without 5% 1’6-Hexanediol for 10 minutes stained for myc-TDP (green) or DAPI (blue). Scale bar, 5 µm. (C) Representative confocal microscopy immunofluorescence confocal images of HeLa cells […]
as §2, §3

[3] = system: R155H HeLa cells expressing TDP-4FL; assay: Immunofluorescence of TDP-4FL inclusion morphology, R155H HeLa
Procedure: as §1, with “microscope. Primary antibodies used include mouse anti-Myc (9E10), rabbit anti-Myc (ab9106), mouse anti-VCP (NB120-11433), and mouse anti-ubiquitin (ST1200, Millipore) with Alexa Flour 488 or 568 (Invitrogen) as secondary antibodies. […]” for “microscope.”
as §4, §5, §2, §3

SMILES: CC(C)C[C@@H](C=O)NC(=O)[C@H](CC(C)C)NC(=O)[C@H](CC(C)C)NC(=O)OCc1ccccc1 [MG132] (Cbz-Leu-Leu-Leu-aldehyde)
- TDP-4FL inclusion size and morphology upon proteasome inhibition ([1]; 4 μM MG132, 1 μM ixazomib or 1 μM epoxomicin, 3 or 6 hours): coalesced into larger, irregularly shaped aggregates
- Proportion of Morphology: Aggregate ([1]; MG132 3 hours): 0.538 and 0.500 and 0.591 and 0.474
- Proportion of Morphology: Anisosome ([1]; MG132 3 hours): 0.462 and 0.500 and 0.409 and 0.526
- Proportion of Morphology: Aggregate ([1]; MG132 6 hours): 0.636 and 0.719 and 0.766
- Proportion of Morphology: Anisosome ([1]; MG132 6 hours): 0.364 and 0.281 and 0.234
- Proportion of Morphology: Aggregate ([2]; MG132 3 hours): 0.604 and 0.568 and 0.630 and 0.595
- Proportion of Morphology: Anisosome ([2]; MG132 3 hours): 0.396 and 0.432 and 0.370 and 0.405
- Proportion of Morphology: Aggregate ([2]; MG132 6 hours): 0.766 and 0.785 and 0.833
- Proportion of Morphology: Anisosome ([2]; MG132 6 hours): 0.234 and 0.215 and 0.167
- Proportion of Morphology: Aggregate ([3]; MG132 3 hours): 0.608 and 0.623 and 0.684 and 0.640
- Proportion of Morphology: Anisosome ([3]; MG132 3 hours): 0.392 and 0.377 and 0.316 and 0.360
- Proportion of Morphology: Aggregate ([3]; MG132 6 hours): 0.768 and 0.744 and 0.727
- Proportion of Morphology: Anisosome ([3]; MG132 6 hours): 0.232 and 0.256 and 0.273
